Measured values as given in US6727401B1, “Pressure sensitive adhesive matrix patch for the treatment of onychomycosis” (Watson Pharmaceuticals, Inc., priority 1998, dated 2004).
Blank lines part the entries; values can stand above or below the molecule they belong to.

Key:
[1] = In vitro human cadaver skin flux study, modified Franz cells; assay type: in vitro ADME
Procedure: In vitro human cadaver skin flux studies were conducted using modified Franz non-jacketed permeation cells. The temperature of the skin surface was maintained at 32° C. by placing the cells in a circulating water bath positioned over a stirring module. The epidermal membrane was separated from the dermatomed human cadaver skin by the heat-separation method of Kligman and Christopher (Arch. Dermatol. 88:702 (1963)) involving the exposure of the full thickness skin to 60° C. heat for 60 seconds, after which time the stratum corneum and the epidermis (epidermal membrane) were gently peeled off the dermis.
For a matrix skin flux study, the heat separated human epidermal membrane was cut into rectangular strips. The matrix was cut into 0.71 cm^2 circular discs. […] At predetermined sampling intervals, the entire contents of the receiver compartment were collected for drug quantitation and the receiver compartment was filled with fresh receiver solution, taking care to eliminate any air bubbles at the skin/solution interface.
For the topical gel study, included for illustration purposes, a thin film of gel approximately 10 μl/cm^2, was applied to the stratum-corneum surface of a hydrated piece of human cadaver skin. […] At predetermined sampling intervals, the entire contents of the receiver compartment were collected for drug quantitation. […]

[2] = Amount of drug retained in the nail after matrix patch application; assay type: in vitro ADME; conditions: human, 48 hours
Procedure: (§1) In vitro human cadaver nail flux studies were conducted using modified Franz non-jacketed permeation cells. The temperature of the nail surface was maintained at 32° C. by placing the cells in a circulating water bath positioned over a stirring module. Human finger nail or toe nail was stored under frozen conditions in 0.02% (w/v) sodium azide solution. Nails that were greater than 1 cm^2 in area were used for the flux studies. Nails with dorsal side facing the donor compartment were sandwiched between two layers of a closed cell polyethylene foam film. Annular ring of 2.38 cm outer diameter and 0.95 cm inner diameter was cut from the backing film. The area of the donut hole (0.97 cm^2) is large enough to provide complete contact with the receiver media. The purpose of the foam backing film was to prevent any leakage of receiver medium from the cell assembly. The nails were allowed to hydrate at 32° C. overnight with 0.02% (w/v) sodium azide solution in the receiver compartment. The following morning, 0.71 cm^2 circular matrix patches were laminated onto the dorsal side of the nail. Each nail matrix sandwich was then loaded between the donor and receiver compartments of a diffusion cell, with the ventral side of nail facing the receiver compartment, and clamped in place.
The remaining portion of nail was also dried, weighed, extracted in dimethyl sulfoxide and analyzed for drug content.

[3] = In vitro human cadaver nail flux study, modified Franz cells, matrix patch; assay type: in vitro ADME
Procedure: The cumulative amount of drug permeated per unit area at any time t(Qt, μg/cm^2) was determined as follows: [formula]
where Cn is the concentration (μg/ml) of the drug in the receiver sample for the corresponding sample time, V is the volume of fluid in the receiver chamber (˜6.3 cm^3), and A is the diffusion area of the cell (0.64 cm^2).
as §1

[4] = Amount of drug retained in the skin after matrix patch application; conditions: patch at 24 hours versus day 1 after oral administration
[5] = long term, high dose systemic therapy, cited from earlier work

skin flux without an enhancer [1]: below the detection limit | amount of drug retained in the nail per unit dry weight of nail [2]: greater than 500 μg/g | permeation across the nail [3]: no permeation
Compound: Clc1ccccc1C(c1ccccc1)(c1ccccc1)n1ccnc1 [clotrimazole]

Compound: OC(Cn1cncn1)(Cn1cncn1)c1ccc(F)cc1F [fluconazole]
times higher amount of fluconazole in the skin compared to oral administration [4]: 500-600 times | times higher amount of drug in the nail after patch application compared to reported oral administration [2]: 1000-2000 times | permeation across the nail [3]: no permeation

Compound: CC(=O)N1CCN(c2ccc(OCC3COC(Cn4ccnc4)(c4ccc(Cl)cc4Cl)O3)cc2)CC1 (centres unmarked) [ketoconazole]
effect of the presence of an enhancer on skin flux ([1]; enhancer lauramide-DEA, acrylic pressure sensitive adhesive): doubles the flux | reported liver toxicity [5]: liver toxicity effects | reported effect on testosterone levels in blood ([5]; due to adverse effects on the testes): reduces testosterone levels in blood

times higher amount of drug in the nail after patch application compared to reported oral administration [2]: 100-1000 times | permeation across the nail [3]: no permeation
Compound: CN(C/C=C/C#CC(C)(C)C)Cc1cccc2ccccc12 [terbinafine]
